According to patent US20250333388A1, “OXADIAZOLONE COMPOUNDS AND HERBICIDAL COMPOSITIONS AND USES THEREOF” (SHANDONG BINNONG TECHNOLOGY CO., LTD., priority 2023, published 2025):

Assays:
Type in all cases: in vivo
abutilon = test: Test of herbicidal activity, post-seedling stem and leaf spray in greenhouse, abutilon; settings: for herbicidal activity against abutilon compared with Control compounds A, B and C: at different doses, summary of Table 5; for Abutilon (%) control effect: post-seedling stem and leaf spray
Protocol: (§1) Seeds of broadleaf weeds (abutilon, Solanum nigrum) or gramineous weeds (crabgrass, barnyard grass) were sown into nutrient soil in plastic cups, respectively, and then covered with soil, compacted, watered, and further cultivated in a greenhouse by conventional methods. The stems and leaves of the weeds were sprayed when the weeds reached the 2- to 3-leaf stage. The test compounds of the present application were dissolved in acetone respectively, followed by addition of Tween 80. The solution was diluted with a certain amount of water to a certain solubility, and then sprayed onto the plants using a spray tower. The test was repeated three times. After drying naturally in the shade, the plants were put in a greenhouse and managed according to conventional methods. The growth and development of weeds were observed, and the control effect of the test agent on weeds was checked visually periodically, which was expressed by 0-100%, with “0” representing no control effect, and “100%” representing complete killing or severe inhibition.

Solanum nigrum = test: Test of herbicidal activity, post-seedling stem and leaf spray in greenhouse, Solanum nigrum; settings: for herbicidal activity against Solamum nigrum compared with Control compounds A, B and C: at different doses, summary of Table 5; for Solanum nigrum (%) control effect: post-seedling stem and leaf spray
Protocol: as §1

crabgrass = test: Test of herbicidal activity, post-seedling stem and leaf spray in greenhouse, crabgrass; settings: for herbicidal activity against crabgrass compared with Control compounds A, B and C: at different doses, summary of Table 5; for Crabgrass (%) control effect: post-seedling stem and leaf spray
Protocol: as §1

barnyard grass = test: Test of herbicidal activity, post-seedling stem and leaf spray in greenhouse, barnyard grass; settings: for herbicidal activity against barnyard grass compared with Control compounds A, B and C: at different doses, summary of Table 5; for Barnyard grass (%) control effect: post-seedling stem and leaf spray
Protocol: as §1

corn = test: Safety testing on corn, stem and leaf spray in greenhouse; settings: for inhibitory effect on corn (crop safety): at different doses, as compared to Control compounds A, B, and C, summary of Table 6; for Corn (%) safety (crop damage): stem and leaf spray
Protocol: (§2) The seeds of corn and rice were sown into nutrient soil in plastic cups, respectively, then covered with soil, compacted, watered, and further cultivated in a greenhouse by conventional methods. The stems and leaves of the crops were sprayed when the crops reached the 2- to 3-leaf stage. The test compounds of the present application were dissolved in acetone, followed by addition of Tween 80. The solution was then diluted with a certain amount of water to a certain solubility, and sprayed onto the plants using a spray tower. The test was repeated three times. After drying naturally in the shade, the plants were put in a greenhouse and managed according to conventional methods. The growth and development of corn and rice were observed, and the safety of the test agent on corn and rice was checked visually periodically. A safety grading standard was represented by 0-100%, with “O” representing no damage to crops, and “100%” representing complete killing or severe inhibition of crops.

rice = test: Safety testing on rice, stem and leaf spray in greenhouse; settings: for inhibitory effect on rice (crop safety): at different doses, as compared to Control compounds A, B, and C, summary of Table 6; for Rice (%) safety (crop damage): stem and leaf spray
Protocol: as §2

[1] = dose 300 g a.i/ha, 0 = no control effect, 100% = complete killing or severe inhibition
[2] = dose 300 g a.i/ha, 0 = no damage to crops, 100% = complete killing or severe inhibition

Compound	Abutilon (%) control effect (abutilon; dose 37.5 g a.i/ha) [%]	Abutilon (%) control effect (abutilon; dose 75 g a.i/ha) [%]	Abutilon (%) control effect (abutilon; dose 150 g a.i/ha) [%]	Abutilon (%) control effect (abutilon; [1]) [%]	Solanum nigrum (%) control effect (Solanum nigrum; dose 37.5 g a.i/ha) [%]	Solanum nigrum (%) control effect (Solanum nigrum; dose 75 g a.i/ha) [%]	Solanum nigrum (%) control effect (Solanum nigrum; dose 150 g a.i/ha) [%]	Solanum nigrum (%) control effect (Solanum nigrum; dose 300 g a.i/ha) [%]	Crabgrass (%) control effect (crabgrass; dose 37.5 g a.i/ha) [%]	Crabgrass (%) control effect (crabgrass; dose 75 g a.i/ha) [%]	Crabgrass (%) control effect (crabgrass; dose 150 g a.i/ha) [%]	Crabgrass (%) control effect (crabgrass; dose 300 g a.i/ha) [%]	Barnyard grass (%) control effect (barnyard grass; dose 37.5 g a.i/ha) [%]	Barnyard grass (%) control effect (barnyard grass; dose 75 g a.i/ha) [%]	Barnyard grass (%) control effect (barnyard grass; dose 150 g a.i/ha) [%]	Barnyard grass (%) control effect (barnyard grass; dose 300 g a.i/ha) [%]	Corn (%) safety (crop damage) (corn; dose 37.5 g a.i/ha) [%]	Corn (%) safety (crop damage) (corn; dose 75 g a.i/ha) [%]	Corn (%) safety (crop damage) (corn; dose 150 g a.i/ha) [%]	Corn (%) safety (crop damage) (corn; [2]) [%]	also measured
Cc1nn(Cc2c(S(C)(=O)=O)ccc(C(=O)c3c(C4CC4)nn(C)c3OC(=O)c3c(C)nn(C)c3Cl)c2Cl)c(=O)o1 [Compound 201]	55	80	92	98	55	75	95	100	45	65	80	90	55	75	95	100	0	0	0	0	herbicidal activity against abutilon compared with Control compounds A, B and C (abutilon): better herbicidal activities; herbicidal activity against Solamum nigrum compared with Control compounds A, B and C (Solanum nigrum): better herbicidal activities; herbicidal activity against crabgrass compared with Control compounds A, B and C (crabgrass): better herbicidal activities; herbicidal activity against barnyard grass compared with Control compounds A, B and C (barnyard grass): better herbicidal activities; inhibitory effect on corn (crop safety) (corn): no significant inhibitory effect; inhibitory effect on rice (crop safety) (rice): no significant inhibitory effect; Rice (%) safety (crop damage) (rice; dose 37.5 g a.i/ha): 0%; Rice (%) safety (crop damage) (rice; dose 75 g a.i/ha): 0%; Rice (%) safety (crop damage) (rice; dose 150 g a.i/ha): 0%; Rice (%) safety (crop damage) (rice; dose 300 g a.i/ha): 2%
CCS(=O)(=O)c1ccc(C(=O)c2c(C)nn(C)c2OC(=O)c2cc(C)nn2C)c(Cl)c1Cn1nc(C)oc1=O [Compound 224]	55	80	90	92	50	70	90	93	45	65	80	84	50	70	85	88	0	0	0	2	herbicidal activity against abutilon compared with Control compounds A, B and C (abutilon): better herbicidal activities; herbicidal activity against Solamum nigrum compared with Control compounds A, B and C (Solanum nigrum): better herbicidal activities; herbicidal activity against crabgrass compared with Control compounds A, B and C (crabgrass): better herbicidal activities; herbicidal activity against barnyard grass compared with Control compounds A, B and C (barnyard grass): better herbicidal activities; inhibitory effect on corn (crop safety) (corn): no significant inhibitory effect; inhibitory effect on rice (crop safety) (rice): no significant inhibitory effect; Rice (%) safety (crop damage) (rice; dose 37.5 g a.i/ha): 0%; Rice (%) safety (crop damage) (rice; dose 75 g a.i/ha): 0%; Rice (%) safety (crop damage) (rice; dose 150 g a.i/ha): 2%; Rice (%) safety (crop damage) (rice; dose 300 g a.i/ha): 5%
CS(=O)(=O)c1ccc(C(=O)C2C(=O)CCCC2=O)c(Cl)c1 [Control compound A, reference compound]	50	80	98	100	50	70	90	95	5	25	45	50	10	30	50	60	0	0	0	5	Rice (%) safety (crop damage) (rice; dose 37.5 g a.i/ha): 10%; Rice (%) safety (crop damage) (rice; dose 75 g a.i/ha): 25%; Rice (%) safety (crop damage) (rice; dose 150 g a.i/ha): 45%; Rice (%) safety (crop damage) (rice; dose 300 g a.i/ha): 60%
Cc1nn(C)c(O)c1C(=O)c1ccc(S(C)(=O)=O)cc1Cl [Control compound B, reference compound]	45	55	75	85	40	50	65	70	5	15	40	45	10	25	45	55	0	0	0	2	Rice (%) safety (crop damage) (rice; dose 37.5 g a.i/ha): 10%; Rice (%) safety (crop damage) (rice; dose 75 g a.i/ha): 20%; Rice (%) safety (crop damage) (rice; dose 150 g a.i/ha): 40%; Rice (%) safety (crop damage) (rice; dose 300 g a.i/ha): 55%
CS(=O)(=O)c1ccc(C(=O)C2C(=O)CCCC2=O)c(Cl)c1CN1CCOCC1 [Control compound C, reference compound]	45	55	70	90	40	50	65	85	20	55	65	70	35	60	70	75	0	0	2	5	Rice (%) safety (crop damage) (rice; dose 37.5 g a.i/ha): 30%; Rice (%) safety (crop damage) (rice; dose 75 g a.i/ha): 55%; Rice (%) safety (crop damage) (rice; dose 150 g a.i/ha): 75%; Rice (%) safety (crop damage) (rice; dose 300 g a.i/ha): 85%
